# Assays:
# Mexican Bean Beetle = assay: Protocol 1 Mexican Bean Beetle (BB) foliar spray test; format: in vivo, Epilachna verivestis; details: control rated after 48 hours (100 = all larvae dead)
# Protocol: (§1) A test solution containing 1250 parts per million (ppm) was prepared by dissolving the test compound in […] of a second solvent (acetone: water, 1:1) to give an acetone:water: methanol system of 50: 40:10.
# (§2) The enclosed spraying chamber consisted of a single spray nozzle mounted on a boom moving at a fixed speed and distance over stationary targets. The vertical distance from the nozzle tip to the targets was adjusted to give rates varying from 150 g/ha to 600 g/ha
# (§3) Individual fully expanded primary lima bean (Phaseolus limensis) leaves were placed bottom side up on moistened pieces of filter paper in Petri dishes. The leaves were sprayed with the test solutions and allowed to dry. The dishes were infested with 5 third instar larvae of the mexican bean beetle, covered with the lids, and held at 27° C. Bean beetle control was rated by visual inspection after 48 hours. […] A rating of 0 indicated no dead larvae and normal feeding. Intermediate control was indicated by intermediate ratings.
# Two-Spotted Spider Mite = assay: Protocol 1 Two-Spotted Spider Mite (MTA) foliar spray test; format: in vivo, Tetranychus urticae; details: percentage of mites killed 1-day post-treatment
# Protocol: as §1, §2
# A pad of moistened cotton was placed in a Petri dish. A 1-inch square section cut from a fully expanded primary lima bean (Phaseolus limensis) leaf was positioned bottom side up on the moist cotton. The leaf square was infested with approximately 50 adult female mites. The dishes were sprayed with the test solutions and held at 27° C. for mortality determination 1-day post-treatment. The percentage of mites killed were rated from 100% (all dead) to 0% (all alive).
# Pyricularia oryzae = assay: whole plant or invertebrate; format: in vivo; details: protectant, 300 g/ha, greenhouse; 100 is total disease control, 0 is no disease control
# Southern Armyworm = assay: Protocol 1 Southern Armyworm (AW) foliar spray test; format: in vivo, Spodoptera eridania
# Protocol: as §1, §2
# as §3, with “southern armyworm,” for “mexican bean beetle,”, “Armyworm” for “Bean beetle”
# Sphaerotheca fuliginea = assay: Cucumber Powdery Mildew (CPM) protectant test in the greenhouse; format: in vivo; details: 300 g/ha, 100 is total disease control, 0 is no disease control
# Summary of the method: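 Compounds in acetone-methanol-water (1:1:2) sprayed onto cucumber cv. "Bush Champion" (cotyledons plus one true leaf, 13 days old), dried 4 h. Inoculated 1 day later with 2×10^5 spores/ml; disease control (%) rated after 7 days in greenhouse.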
Structure (SMILES),"BB (Mexican Bean Beetle; Protocol 1, DOSE 300)","MTA (Two-Spotted Spider Mite; Protocol 1, DOSE 300) [%]","Rice Blast (RB) protectant fungicide data, percent control (Pyricularia oryzae) [percent control]","AW (Southern Armyworm; Protocol 1, DOSE 300)","Cucumber Powdery Mildew (CPM) protectant fungicide data, percent control (Sphaerotheca fuliginea) [percent control]","BB (Mexican Bean Beetle; Protocol 1, DOSE 150)","MTA (Two-Spotted Spider Mite; Protocol 1, DOSE 150) [%]","AW (Southern Armyworm; Protocol 1, DOSE 150)"
O=C1CNC(c2cccc(Cl)c2)=NN1CC(F)(F)F [Compound 37],75,75,95,100,75,–,–,–
CC(=O)N1CC(=O)N(CC(F)(F)F)N=C1c1ccc(Cl)cc1 [Compound 40],50,90,90,0,0,–,–,–
Cc1ccc(C2=NN(CC(F)(F)F)C(=O)CN2)cc1 [Compound 41],50,0,100,0,50,–,–,–
O=C1CNC(c2cc(Cl)cc(Cl)c2)=NN1CC(F)(F)F [Compound 43],–,–,99,–,80,0,0,50
O=C1CNC(Cc2ccccc2)=NN1CC(F)(F)F [Compound 44],–,–,85,–,0,0,0,75
CCC(C)N1N=C(C2CCCCC2)NCC1=O (stereo not drawn) [Compound 48],–,–,50,–,0,0,75,0
CCCCN1N=C(c2ccc(Cl)cc2)NCC1=O [Compound 50],–,–,100,–,80,0,75,0
O=C1CNC(c2ccccn2)=NN1CC(F)(F)F [Compound 52],–,–,50,–,0,0,100,0
O=c1cnc(-c2ccc(Cl)cc2)nn1CC(F)(F)F [Compound 233],75,0,100,50,80,–,–,–
CCCCCn1nc(-c2ccc(Cl)cc2)ncc1=O [Compound 234],0,100,100,0,80,–,–,–
CCn1nc(-c2ccc(Cl)cc2)ncc1=O [Compound 235],100,100,90,0,80,–,–,–
C=CCn1nc(-c2ccc(Cl)cc2)ncc1=O [Compound 236],100,100,99,0,90,–,–,–
Cn1nc(-c2ccc(Cl)cc2)ncc1=O [Compound 238],75,100,50,0,90,–,–,–
O=c1cnc(-c2ccc(Cl)cc2)nn1Cc1ccccc1 [Compound 240],75,100,95,50,75,–,–,–
CC(C)(C)n1nc(-c2ccc(Cl)cc2)ncc1=O [Compound 241],0,100,50,0,0,–,–,–
O=c1cnc(-c2cccc(Cl)c2)nn1CC(F)(F)F [Compound 245],100,100,99,100,0,–,–,–
Cc1ccc(-c2ncc(=O)n(CC(F)(F)F)n2)cc1 [Compound 247],90,0,100,0,80,–,–,–
O=c1cnc(-c2cc(Cl)cc(Cl)c2)nn1CC(F)(F)F [Compound 248],–,–,100,–,80,0,100,0
O=c1cnc(Cc2ccccc2)nn1CC(F)(F)F [Compound 249],–,–,85,–,0,0,90,100
O=c1cnc(C2CCCCC2)nn1CC(F)(F)F [Compound 251],–,–,75,–,0,50,75,0
COc1cccc(-c2ncc(=O)n(CC(F)(F)F)n2)c1 [Compound 252],–,–,85,–,0,100,50,0
Cc1c(Cl)cc(-c2ncc(=O)n(CC(F)(F)F)n2)cc1Cl [Compound 253],–,–,100,–,50,0,100,0
CCCC(C)n1nc(-c2ccc(Cl)cc2)ncc1=O (stereo not drawn) [Compound 254],–,–,95,–,0,100,100,0
CCC(C)n1nc(C2CCCCC2)ncc1=O (stereo not drawn) [Compound 255],–,–,50,–,0,90,100,0

# Source: patent US7494996B2 (priority 2000, dated 2009)
